Reference: paper PMC10610134, “Verubulin (Azixa) Analogues with Increased Saturation: Synthesis, SAR and Encapsulation in Biocompatible Nanocontainers Based on Ca^2+ or Mg^2+ Cross-Linked Alginate” (Pharmaceuticals, 2023)
Like-named read-outs stand apart in the source and are kept apart here.

How the values were obtained:
[1] = tested on: A549; settings: cited from earlier work
[2] = tested on: MCF7′, A549, VA13, HEK293T cell lines; assay: MTT cytotoxicity, SAR statements over the cell line panel; format: cell-based, human; settings: pair A549/VA13
Text: (§1) The obtained series of verubulin analogues 2a–r (which also included three by-products isolated in the reactions according to Scheme 2) were initially evaluated for cytotoxicity against commonly used human breast cancer cell line MCF7′ (fast-growth subclone), human lung epithelial carcinoma cell line A549 and etiologically non-cancer immortalized lung fibroblast cell line VA13 (WI38 subline 2RA). Cytotoxicity against immortalized human embryonic kidney cell line HEK293T, characterized by a high growth rate, was also studied regarding cytotoxicity against non-cancerous fast-growth cells. A standard MTT assay was performed; verubulin (1) served as a positive reference. The data obtained are presented in Table 1 (for dose–response curves, see Supplementary Materials).
(§2) The cytotoxicity of the substances was tested using the 3-(4,5-dimethylthiazol-2-yl)2,5-diphenyl tetrazolium bromide (MTT) assay with some modifications. A total of 2500 cells per well for the MCF7′, HEK293T, A549 cell lines or 4000 cells per well for the VA-13 cell line were plated out in 135 μL of DMEM-F12 media (Gibco, Thermo Fisher Scientific, Waltham, MA, USA) in a 96-well plate and incubated in the 5% CO2 incubator for the first 20 h without treatment. Then, 15.8 μL of media–DMSO solutions of tested substances (final DMSO concentrations in the media were 0.5% or less) was added to the cells (triplicate each) and cells were treated for 64 h with 0.023 mg/L–50 mg/L (eight dilutions) of compounds 2f,n,o,r; 1.14 μg/L–2.5 mg/L (eight dilutions) of compounds 2a,b,d,g,h,k,l,p,q; 57.2 ng/L–125 μg/L (eight dilutions) of compounds 2e,i,j; 22.9 ng/L–50 μg/L (eight dilutions) of compounds 1,2c,m. Doxorubicin was used as a control substance. Then, the MTT reagent (Paneco LLC, Moscow, Russia) was added to cells up to a final concentration of 0.5 g/L (10 × stock solution in PBS was used) and incubated for 2 h at 37 °C in the incubator, under an atmosphere of 5% CO2. Then, the MTT solution was discarded, and 140 μL of DMSO (PharmaMed LLC, Moscow, Russia) was added. The plates were swayed on a shaker (120 rpm) to dissolve the formazan. The absorbance was measured using a microplate reader (VICTOR X5 Light Plate Reader, PerkinElmer, Waltham, MA, USA) at a wavelength of 555 nm (in order to measure formazan concentration). The results were used to construct dose–response graphs and to estimate IC50 values (IC50 is the concentration resulting in half of the maximal cytotoxic effect) with GraphPad Prism V, GraphPadSoftware, Inc., San Diego, CA, USA.

[3] = tested on: immortalized human embryonic kidney cell line HEK293T; assay: MTT cytotoxicity assay, HEK293T; format: cell-based; settings: HEK-293T, read-out: IC50, nM HEK293T
Text: as §1
(§3) Human breast cancer cell line MCF7′ and human lung adenocarcinoma cell line A549 were kindly provided by Dr. S. Dmitriev (Lomonosov Moscow State University), immortalized human fibroblast cell line VA13 (WI38 subline 2RA) was kindly provided by Dr. M. Rubtsova (Lomonosov Moscow State University), human embryonic kidney HEK293T cell line was kindly provided by Dr. E. Knyazhanskaya (Lomonosov Moscow State University). MCF7′, VA13, A549 and HEK293T cell lines were maintained in DMEM/F-12 (Thermo Fisher Scientific, Waltham, MA, USA) culture medium containing 10% fetal bovine serum (Thermo Fisher Scientific, Waltham, MA, USA) and 50 μg/mL penicillin and 0.05 mg/mL streptomycin at 37 °C (Thermo Fisher Scientific, Waltham, MA, USA) in 5% CO2. Cells were maintained at 37 °C in a humidified MCO-18AC incubator (Sanyo, Tokyo, Japan) supplied with 5% CO2. Cell cultures were tested for the absence of mycoplasma and validated by STR.
as §2

[4] = tested on: tubulin (Tb) and microtubule-associated proteins (MAPs) from mouse brains; assay: Tubulin + MAP polymerization assay; format: biochemical; settings: GTP-dependent polymerization, read-out: IC50 of tubulin polymerization (initial rates, optical density at 355 nm)
[5] = tested on: immortalized lung fibroblast cell line VA13 (WI38 subline 2RA); assay: MTT cytotoxicity assay, VA13; format: cell-based; settings: Homo sapiens, read-out: IC50, nM VA13
Text: as §1, §3, §2

[6] = tested on: human breast cancer cell line MCF7′; assay: MTT cytotoxicity assay, MCF7′; format: cell-based; settings: read-out: IC50, nM MCF7′
Text: as §1, §3, §2

[7] = tested on: HCT116 cells; assay: Apoptosis induction, Annexin V / 7-AAD flow cytometry; format: cell-based, human; settings: for Live (viable cells): human, 48 h
Protocol: Apoptosis is an important and active regulatory pathway of cell growth and proliferation. Annexin V is a calcium-dependent phospholipid-binding protein with a high affinity for phosphatidylserine (PS), a membrane component normally localized to the internal face of the cell membrane. Early in the apoptotic pathway, molecules of PS are translocated to the outer surface of the cell membrane where Annexin V can readily bind them.
After incubation, the cells were harvested by trypsinization, precipitated by centrifugation (3000 rpm), washed with cold PBS and recentrifuged. Aliquots of cells were processed as recommended in the Muse Annexin V& Dead Cell Kit (Luminex Corporation, Austin, TX, USA). The results were recorded on a Muse Cell Analyzer flow cytometer (Merck, Rahway, NJ, USA).

[8] = tested on: HCT116 cell line; assay: MTT cytotoxicity towards HCT116; format: cell-based, human; settings: HCT-116
[9] = tested on: human lung epithelial carcinoma cell line A549; assay: MTT cytotoxicity assay, A549; format: cell-based; settings: read-out: IC50, nM A549
Text: as §1, §3, §2

[10] = tested on: microtubules in carcinoma A549 cells; assay: Immunofluorescent microscopy of microtubules; format: cell-based, human; settings: 24 h, A549
Protocol: Since verubulin is known to stimulate microtubule disassociation, we performed an immunofluorescent microscopy study to determine the response of microtubule dynamics in carcinoma A549 cells to the treatment with representative compounds 2b,c,e. […] Aberrant cell morphology—contraction and rounding (Figure 2A,B) or contraction and elongation (Figure 2C)—was also observed.
A549 cells were seeded on coverslips (treated with poly-l-lysine at a concentration of 33 mg/L for an hour). Compounds were added up to the corresponding concentration after 24 h attachment and growth of the cells. Then, cells were incubated 24 h.
The cells were fixed with methanol (precooled in liquid nitrogen for 20 min), no additional permeabilization was performed. To prevent non-specific binding, cells were incubated with 4% BSA in PBS for one hour. Then, a solution of mouse monoclonal antibodies against alpha-tubulin cross-linked with Alexa 488 fluoroform (Thermo Fisher Scientific, Waltham, MA, USA, 32-2588) at a concentration of 5 μg/mL in 1% BSA solution in PBS was added to the cells, and the slides were incubated at +5 °C in a water chamber for 24 h. After the end of the incubation time, the cells were washed several times with PBS buffer solution and fixed on a glass slide with Moviol. Next day, cells were imaged with a ZEISS LSM 900 (ZEISS Microscopy, GmbH, Germany) and images processed with ImageJ.

[11] = tested on: MCF7/MCF10A; parameters: method as in PMID 36802449; settings: cited from earlier work
[12] = 2 × IC50, 48 h, HCT116, listed as verubulin (1)
[13] = HCT116, human colon carcinoma, read-out: IC50

Compound | IC50 [1] [nM] | IC50 ([3]; 64 h treatment, MTT) [nM] | IC50 ([5]; VA-13, 64 h treatment, MTT) [nM] | IC50 ([6]; MCF7, 64 h treatment, MTT) [nM] | IC50 [8, 13] [nM] | IC50 ([9]; A549, 64 h treatment, MTT) [nM] | Live (viable cells) [7] [%] | further results
COc1ccc2c(c1)NC(=O)CN2c1nc(C)nc2c1CCC2 [Banerjee 2021] | 4.5 | – | – | – | – | – | – | –
COc1ccc(N(C)c2nc(C)nc3ccccc23)cc1 [Compound 1, Verubulin] | 5 | – | – | – | – | – | – | selectivity towards tumor cells [2]: no selectivity; IC50 ([3]; 64 h): 1 ± 0.02 nM; IC50 [4]: 3100 ± 1100 nM; IC50 ([5]; VA-13, 64 h): 0.84 ± 0.06 nM; IC50 ([6]; MCF7, 64 h): 1.4 ± 0.05 nM; apoptotic cells, early plus late ([7]; 2 × IC50, 48 h, HCT116): 49.3%; Early Apop. (Annexin V (+), 7-AAD (−)) [7, 12]: 16.3%; Late Apop./Dead (Annexin V (+), 7-AAD (+)) [7, 12]: 33%; IC50 ([8]; Homo sapiens): 3.2 ± 0.7 nM; IC50 ([9]; A549, 64 h): 1.1 ± 0.05 nM
COc1ccc2c(c1)CCCN2c1nc(C)nc2c1CCCC2 [Compound 2e, 4-(6-Methoxy-3,4-dihydroquinolin-1(2H)-yl)-2-methyl-5,6,7,8-tetrahydroquinazoline] | – | 8.8 ± 2 | 7.1 ± 2 | 12.6 ± 2.1 | 22 ± 5 | 13.5 ± 2.2 | – | IC50 [4]: 26000 ± 6000 nM; effect on microtubules (MTs) ([10]; 10 μM): full depolymerization of MTs; effect on microtubules ([10]; 5–10 μM): pronounced or complete disruption of microtubules
COc1ccc(N(C)c2nc(N)nc3c2CCCC3)cc1 [Compound 2i, N^4-(4-Methoxyphenyl)-N^4-methyl-5,6,7,8-tetrahydroquinazolinyl-2,4-diamine] | – | 9.6 ± 2.2 | 6 ± 1.5 | 10.2 ± 1.5 | 40 ± 10 | 15 ± 2 | 43.99 | Early Apop. (Annexin V (+), 7-AAD (−)) ([7]; 2 × IC50, 48 h, HCT116): 46.3%
COc1ccc2c(c1)CCCN2c1nc(N)nc2c1CCCC2 [Compound 2j, 2-Amino-4-(6-methoxy-3,4-dihydroquinolin-1(2H)-yl)-5,6,7,8-tetrahydroquinazoline] | – | 28.9 ± 6.6 | 14.5 ± 3.9 | 40.2 ± 7.8 | 160 ± 30 | 50.5 ± 11.1 | 30.81 | Early Apop. (Annexin V (+), 7-AAD (−)) ([7]; 2 × IC50, 48 h, HCT116): 56.4%
COc1ccc(N(C)c2nc(Cl)nc3c2CCCC3)cc1 [Compound 2m, 2-Chloro-N-(4-methoxyphenyl)-N-methyl-5,6,7,8-tetrahydroquinazolin-4-amine] | – | 2.7 ± 0.12 | 1.3 ± 0.18 | 3.3 ± 0.14 | 1.8 ± 0.1 | 3 ± 0.2 | 52.58 | selectivity towards tumor cells [2]: no selectivity; selectivity in the pair MCF7/MCF10A [11]: selective
COc1ccc(N(C)c2nc(Cl)nc3c2CCCC3)cc1 [Tan 2023] | 4.7 | – | – | – | – | – | – | –
COc1ccc2c(c1)CCCN2c1nc(C)nc2ccccc12 [Wang 2013] | – | – | – | – | – | – | – | GI50 [1]: 17.8 nM
